Our source for the EC50 and LD100 values is ChEMBL document CHEMBL1144141, “Four new steroids from two octocorals” (J Nat Prod, 1999).

≈ marks a conversion by molar mass, not a printed value.

Experiment [1] has as its system Amphibalanus amphitrite. Description: Antifouling activity against Balanus amphitrite assessed as inhibition of cyprid larval settlement. Type of experiment: functional, organism-based.
The subject of experiment [2] is Amphibalanus amphitrite. Description: Lethality against Balanus amphitrite cyprid larvae.

For `CC(=O)O[C@H]1C[C@H]2[C@@H](CCC3=CC(=O)C=C[C@@]32C)[C@]23CC[C@]([C@H](C)CCCC(C)C)(O[C@@]12C)O3` [ISOGOSTERONE A], the EC50 (commonly the concentration that produces a half-maximal response) with Amphibalanus amphitrite [1] turned out to be 2.2 µg/mL (≈ 4.67 µM).

With `C=C[C@H]1CC[C@H]2[C@@H]3CCc4cc(OC)ccc4[C@H]3CC[C@]12C`, the LD100 with Amphibalanus amphitrite [2] amounted to 100 µg/mL.

For the compound `CC(=O)OC(CCC(C)C)[C@@H](C)[C@]1(O)CC[C@@]2(O1)[C@@H]1CCC3=CC(=O)C=C[C@]3(C)[C@H]1C[C@H](OC(C)=O)[C@]2(C)O` (stereo partly drawn) [ISOGOSTERONE C], the EC50 in the experiment on Amphibalanus amphitrite [1] turned out to be 2.2 µg/mL (≈ 4.02 µM).

Regarding `CC(=O)O[C@H]1C[C@H]2[C@@H](CCC3=CC(=O)C=C[C@@]32C)[C@]2(CC[C@@](O)([C@H](C)C(=O)CCC(C)C)O2)[C@@]1(C)O` [ISOGOSTERONE B], in the experiment with Amphibalanus amphitrite [1], the EC50 is 2.2 µg/mL (≈ 4.38 µM).

In the experiment with Amphibalanus amphitrite [2], `CC(C)=CC(O)C(O)[C@@H](C)[C@H]1CC[C@H]2[C@@H]3CC[C@H]4CC(=O)C=C[C@]4(C)[C@H]3CC[C@]12C` (stereo partly drawn) showed an LD100 of 100 µg/mL.

Consider `CC(=O)OC(CCC(C)C)[C@@H](C)[C@]12CC[C@@]3(O1)[C@@H]1CCC4=CC(=O)C=C[C@]4(C)[C@H]1C[C@H](OC(C)=O)[C@]3(C)O2` (stereo partly drawn) [ISOGOSTERONE D], for which the EC50 in the experiment with Amphibalanus amphitrite [1] was found to be 2.2 µg/mL (≈ 4.16 µM).

Compound `C=C[C@H]1CC[C@H]2[C@@H]3CCc4cc(O[C@@H]5O[C@@H](C)[C@@H](OC(C)=O)[C@@H](O)[C@@H]5O)ccc4[C@H]3CC[C@]12C` had an LD100 in the experiment with Amphibalanus amphitrite [2] of 100 µg/mL.

For `COC(=O)/C=C/[C@@H](C)[C@H]1CC[C@H]2[C@@H]3CCC4=CC(=O)C=C[C@]4(C)[C@H]3CC[C@]12C`, the LD100 in the experiment on Amphibalanus amphitrite [2] was 100 µg/mL.
